{"source": "patent US9844526B2", "about": "(priority 2015, dated 2017)", "key": {"vascular function": {"test_system": "vascular function", "conditions": "cited from earlier work"}, "platelets [1]": {"test_system": "platelets", "conditions": "4 mg/kg/day; cited from earlier work"}, "[2]": {"test_system": "Healthy postmenopausal women", "assay": "Microvascular function by peripheral arterial tonometry (Endo-PAT2000), randomized double-blind crossover trial", "type": "in vivo, human", "conditions": "combined data"}, "cyclooxygenase": {"test_system": "cyclooxygenase", "conditions": "in vitro; cited from earlier work"}, "eNOS": {"test_system": "eNOS", "conditions": "1 μM; human umbilical vein endothelial cells; cited from earlier work"}, "platelets [3]": {"test_system": "platelets", "conditions": "10 mg daily for three months; cited from earlier work"}, "platelets [4]": {"test_system": "platelets", "conditions": "in vitro, 10-1,000 μM, dose dependent; cited from earlier work"}, "platelets [5]": {"test_system": "platelets", "assay": "Platelet function by whole blood/optical lumi-aggregometer after capsule intake", "type": "in vivo, human", "protocol": "Participants were randomized by block design to consumed trans-res or […] random order. Randomization was performed by the study coordinator following a predetermined plan formulated via a web-based random number generator. […] The study included two separate investigations: a one hour study and a two hour study (FIG. 6). During each study visit, which took place after an overnight fast, a baseline measurement of PAT and a blood sample were collected, followed by consumption of the assigned treatment. During the one hour study, PAT measurements and blood samples were collected thirty and sixty minutes after the capsules were consumed. During the two hour study, a PAT measurement and blood sample were taken two hours after the capsules were consumed. Platelet reactivity during clinical screening was assessed by a PFA-100 (Siemens, Deerfield, Ill.), which measures platelet function by simulating arterial hemostasis under blood flow shear stress. During the intervention, platelet function was assessed by a whole blood/optical lumi-aggregometer (Chrono-log Model 700, Havertown, Pa.). Briefly, platelet aggregation was measured via electrical impedence (or electrical resistance), whereas lumi-aggregometry was used to examine aggregation together with adenosine triphosphate (hereafter, “ATP”) release, which is determined with firefly luciferin-luciferase system. […] One of the following agonists was used to stimulate platelets: collagen ([…]), AA (10 μL) or ADP ([…]). ATP release was measured only when platelets were activated with ADP. The aggregation was measured over a period of six minutes, following the addition of an agonist."}, "[6]": {"assay": "Plasma resveratrol concentrations after capsule intake (HPLC)", "type": "in vivo, human", "conditions": "one hour study, median (interquartile range), baseline 0.00 (0.00, 0.00)", "protocol": "The study included two separate investigations: a one hour study and a two hour study (FIG. 1). […] The two hour study was designed to fully assess and compare the responses to trans-res and ResArgin™.\nParticipants were randomized by block design to consumed trans-res or ResArgin™ in random order. Randomization was performed by the study coordinator following a predetermined plan formulated via a web-based random number generator. […] The study included two separate investigations: a one hour study and a two hour study (FIG. 6). During each study visit, which took place after an overnight fast, a baseline measurement of PAT and a blood sample were collected, followed by consumption of the assigned treatment. During the one hour study, PAT measurements and blood samples were collected thirty and sixty minutes after the capsules were consumed. During the two hour study, a PAT measurement and blood sample were taken two hours after the capsules were consumed.\nBriefly, plasma was treated with acidified methanol [0.5% (v/v) of acetic acid in methanol; precooled to −20° C.] containing an appropriate recovery standard. The mixture was stored at −80 C for 12 hours to allow for cryo-assisted protein precipitation, and then centrifuged for 15 min at 16,500×g. […]"}, "[7]": {"conditions": "10 mg per day for three months, stable coronary artery disease patients"}, "[8]": {"conditions": "platelets stimulated with 1 μL collagen, one hour post consumption of 90 mg"}, "[9]": {"conditions": "platelets stimulated with 10 μL arachidonic acid, one hour after intake of 90 mg"}}, "note": "“Also recorded” adds a separate entry of the source. Like-named read-outs stand apart in the source and are kept apart here.", "data": [{"smiles": "Oc1ccc(C=Cc2cc(O)cc(O)c2)cc1", "note": "[Resveratrol, 3,5, 4′-trihydroxystilbene]", "values": [{"measurement": "FMD response", "setting": "vascular function; [7]", "result": "enhanced"}, {"measurement": "FMD response", "setting": "vascular function; 75 mg daily for six weeks", "result": "enhanced"}, {"measurement": "ADP-induced platelet aggregation", "setting": "platelets [1]", "result": "inhibited"}]}, {"smiles": "Oc1ccc(/C=C/c2cc(O)cc(O)c2)cc1", "note": "[trans-res, Trans-resveratrol]", "values": [{"measurement": "AI@75 (AI normalized to a heart rate of 75 beats per minute), change", "setting": "[2]; 90 mg", "result": "No significant changes"}, {"measurement": "RHI", "setting": "[2]; 1 hour after intake, ResArgin baseline 2.119±0.085", "result": "not observed"}, {"measurement": "FRHI, change from baseline", "setting": "[2]; one and two hours after intake", "result": "No differences were observed; also recorded: no changes"}, {"measurement": "Cyclooxygenase (COX) activity", "setting": "cyclooxygenase", "result": "inhibit"}, {"measurement": "Expression of eNOS", "setting": "eNOS", "result": "up-regulated"}, {"measurement": "FMD response", "setting": "vascular function; [7]", "result": "significant improvement"}, {"measurement": "FMD response", "setting": "vascular function; 75 mg daily for six weeks", "result": "significant increase"}, {"measurement": "FMD response", "setting": "vascular function; 75 mg, one hour post-consumption", "result": "significant increase"}, {"measurement": "FMD response", "setting": "vascular function; single dose of 30, 90 and 270 mg, one hour after consumption", "result": "increase"}, {"measurement": "Platelet aggregation", "setting": "platelets [3]", "result": "significantly reduced"}, {"measurement": "Platelet aggregation", "setting": "platelets [4]", "result": "significantly reduced"}, {"measurement": "Slope, change from baseline", "setting": "platelets [5]; lumi-aggregometry with 10 μL ADP, one hour post consumption of 90 mg", "result": "significant decrease"}, {"measurement": "Lag time, change from baseline", "setting": "platelets [5]; [8]", "result": "significant increase"}, {"measurement": "Slope, change from baseline", "setting": "platelets [5]; [8]", "result": "not"}, {"measurement": "Area under the curve (AUC) of aggregation, change from baseline", "setting": "platelets [5]; [9]", "result": "no changes"}, {"measurement": "Maximum aggregation, change from baseline", "setting": "platelets [5]; [9]", "result": "no changes"}, {"measurement": "Platelet function, change from baseline", "setting": "platelets [5]; stimulation with 5 μL collagen, one hour post consumption of 90 mg", "result": "no significant changes"}, {"measurement": "Plasma resveratrol concentration", "setting": "[6]; 30 minutes after intake of 90 mg", "result": "2.04 (0.82, 2.54)"}, {"measurement": "Plasma resveratrol concentration", "setting": "[6]; 60 minutes after intake of 90 mg", "result": "2.65 (1.69, 3.44)"}]}]}
